The record followed here is patent US8029770B2 (Rutgers, The State University, priority 2003, dated 2011).

The test system of assay [1] is apoptotic sunburn cells in the epidermis of FVB mice. Briefly: UVB-induced apoptotic sunburn cells in FVB mice, topical caffeine. It counts as in vivo, mouse. To be noted: 1.2 mg (6.2 μmole) in 100 μL acetone immediately, 0.5 and 2 hours after UVB 60 mJ/cm2; 6 hours. From the text:
Apoptotic sunburn cells were identified by changes in morphology and counted.

The subject of assay [2] is apoptotic sunburn cells in the epidermis of C57/BL/6J p53(+/+) mice. Briefly: UVB-induced apoptotic sunburn cells in C57/BL/6J p53(+/+) mice, topical caffeine. It counts as in vivo, mouse. The method, then:
The time course for apoptosis was determined by utilizing morphologically distinct sunburn cells as the marker for apoptosis. […] Accordingly, studies with a C57/BL/6J mouse were performed with a 60 mJ/cm^2 dose of UVB.
Measurement of apoptotic sunburn cells. Identification of apoptoic sunburn cells was based morphologically on cell shrinkage and nuclear condensation due to fragmentation of the cells. […] The percentage of apoptotic sunburn cells in the epidermis (basal plus suprabasal layers) was calculated from the number of these cells per 100 cells counted from the entire 20 mm length of epidermis for each skin section.

The subject of assay [3] is prostate tumor cell line PC-3. Briefly: Apoptosis in prostate tumor cell line PC-3. It counts as cell-based.
Assay [4] concerns UVB-induced skin tumors in tumor-bearing SKH-1 mice. Briefly: Growth of UVB-induced skin tumors in tumor-bearing SKH-1 mice. It counts as in vivo, mouse. The method, then:
Female SKH-1 mice (7 to 8 weeks old) were treated with 30 mJ/cm^2 of UVB twice a week for 20 weeks. The UVB was stopped for 24 weeks. These tumor-bearing animals were divided into 2 groups (19 mice per group). […] The number (FIG. 1A) and size (FIG. 1B) of the tumors were recorded every 2 weeks.
The radius (r) was determined, and the volume was calculated by: volume=4πr^3/3.
Female SKH-1 mice were treated with 30 mJ/cm^2 of UVB twice a week for 20 weeks and UVB were stopped for 24 weeks. The resulting tumor-bearing animals were divided into 2 groups (19 mice per group). […] The number and size of the tumors were recorded every 2 weeks.

The mark [5] stands for this setting: 4% in 100 mg DERMABASE once a day 5 days a week, 8 weeks (FIG. 1).

Consider `Cn1c(=O)c2c(ncn2C)n(C)c1=O` [Caffeine, caffeine], for which the “enhancement of UVB-induced increase of apoptotic sunburn cells” value in assay [1] is 120-150%. Moreover, in assay [2] (female p53(+/+), 1.2 mg in 100 μL acetone immediately, 0.5 and 2 h after UVB 60 mJ/cm^2, 6 hours after UVB), the “enhancement of formation of UVB-induced apoptotic sunburn cells vs UVB plus acetone” value is 127%. In addition, the “effect on apoptosis in non-UVB-treated mice” value in assay [2] (female p53(+/+), no UVB) is recorded as “no effect”. Besides, in assay [2] (male p53(+/+), no UVB), the “effect on apoptosis in non-UVB-treated epidermis” value was “no effect”.
Turning to `Cn1c(=O)c2c(ncn2C)n(C)c1=O.O=C([O-])c1ccccc1.[Na+]` [Caffeine Sodium Benzoate, caffeine sodium benzoate], the “apoptosis in PC-3” value in assay [3] (0.1, 0.2 or 0.5 mM for 96 hours) is “dose-response relationship on apoptosis”. Moreover, the “pro-apoptotic effect compared with caffeine” value in assay [3] (PC-3, 0.1, 0.2 or 0.5 mM, 96 hours) is “more potent than caffeine at all dose levels tested”. Further, in assay [4] (setting [5]), the “reduction in the number of tumors that developed per mouse vs DERMABASE” value came out at 2 fold and the “reduction in tumor volume per mouse vs DERMABASE” value is approximately 3 fold. Besides, the “number and size of tumors” value in assay [4] (4% in 100 mg DERMABASE, 8 weeks (FIG. 1A, 1B)) is on record as “significantly reduced”.
